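All cell lines were grown in 96-well plates and treated with compound for 48 hours. Here, GI50 denotes the concentration required for 50% inhibition of growth. At the TGI there is no net growth.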

Some test systems named below: M14 melanoma; HCT-116 colon; KM12 colon; SK-MEL-2 melanoma; SK-MEL-28 melanoma; EKVX NSCLC; ACHN renal; CCRF-CEM leukemia; DU-145 prostate; K-562 leukemia.
What all share (assay): NCI anticancer screen, dose series, 48 h

For `Nc1nc(N)c2ncn(Cc3c(Cl)cccc3Cl)c2n1`, the TGI in the experiment on M14 melanoma, in the experiment on HCT-116 colon, with KM12 colon, in the experiment with SK-MEL-2 melanoma, in the experiment with SK-MEL-28 melanoma and with EKVX NSCLC was > 100 µM each time. The TGI with ACHN renal, in the experiment with CCRF-CEM leukemia and in the experiment with DU-145 prostate was > 100 µM each time.
Take `O=C(Oc1ccccc1Cl)c1cccnc1Nc1ccnc(C(F)(F)F)c1`: the GI50 is 4.61 µM in the experiment on K-562 leukemia; 2.13 µM in the experiment with HCT-116 colon; 14.4 µM in the experiment on KM12 colon; 6.79 µM in the experiment on SK-MEL-2 melanoma; 20.4 µM in the experiment with SK-MEL-28 melanoma; 32.6 µM with EKVX NSCLC. Also, the GI50 in the experiment on ACHN renal was 22 µM; in the experiment with CCRF-CEM leukemia, 2.4 µM; with DU-145 prostate it was 15.7 µM. Moreover, the TGI in the experiment on K-562 leukemia is 27.6 µM; in the experiment with HCT-116 colon, 4.35 µM; in the experiment with KM12 colon, 32.6 µM; with SK-MEL-2 melanoma it was 21.8 µM; with SK-MEL-28 melanoma, 46.8 µM; with EKVX NSCLC it was 84.3 µM. In addition, the results for the TGI in the experiment with ACHN renal, in the experiment on CCRF-CEM leukemia and with DU-145 prostate were 50.2 µM, 6.52 µM and 30.4 µM, respectively.
Consider `COc1ccc(OC)c(-c2cn3nc(-c4c[nH]c5ccc(Br)cc45)sc3n2)c1`, for which the GI50 was 2.1 µM in the experiment on M14 melanoma; 1.67 µM with HCT-116 colon; 2.19 µM in the experiment with KM12 colon; 3.33 µM in the experiment with SK-MEL-2 melanoma; 3.29 µM with SK-MEL-28 melanoma; 2.83 µM in the experiment with EKVX NSCLC. The GI50 is 2.02 µM with ACHN renal, 3.73 µM in the experiment on CCRF-CEM leukemia and 2.8 µM in the experiment with DU-145 prostate. Also, the TGI in the experiment on M14 melanoma was determined as 4.75 µM; in the experiment on HCT-116 colon, 3.28 µM; in the experiment with KM12 colon it was 6.24 µM; in the experiment on SK-MEL-2 melanoma, 13.4 µM; with SK-MEL-28 melanoma it was 11.7 µM; in the experiment on EKVX NSCLC, 11.4 µM. Moreover, the TGI with ACHN renal is 6.49 µM; in the experiment on CCRF-CEM leukemia, > 100 µM; in the experiment with DU-145 prostate it was 7.71 µM.
Regarding `CC(C)(C)c1ccc(NC(=O)c2cc(=O)c3ccccc3[nH]2)c(C(C)(C)C)c1O`, the GI50 was 4.37 µM in the experiment on K-562 leukemia; 3.81 µM in the experiment with M14 melanoma; 3.71 µM with HCT-116 colon; 3.13 µM in the experiment on KM12 colon; 12.6 µM with SK-MEL-2 melanoma; 12.8 µM in the experiment with SK-MEL-28 melanoma. Besides, the GI50 is 4.13 µM in the experiment on ACHN renal, 2.33 µM with CCRF-CEM leukemia and 10.7 µM in the experiment with DU-145 prostate. Besides, the TGI with K-562 leukemia was determined as 16.7 µM; in the experiment on M14 melanoma, 13.9 µM; with HCT-116 colon it was 13.4 µM; in the experiment with KM12 colon, 8.53 µM; in the experiment on SK-MEL-2 melanoma, 26.4 µM; in the experiment with SK-MEL-28 melanoma, 26 µM. Moreover, the TGI was 12.8 µM in the experiment with ACHN renal, 8.25 µM in the experiment on CCRF-CEM leukemia and 23.5 µM with DU-145 prostate.
In the case of `COc1ccc(/C=C2/CCOC2=O)cc1`, the GI50 with K-562 leukemia, with M14 melanoma, with HCT-116 colon, with KM12 colon, in the experiment with SK-MEL-2 melanoma and with SK-MEL-28 melanoma was > 100 µM in each case. The GI50 with ACHN renal, with CCRF-CEM leukemia and in the experiment with DU-145 prostate was > 100 µM throughout. The TGI with K-562 leukemia, in the experiment with M14 melanoma, in the experiment with HCT-116 colon, in the experiment on KM12 colon, with SK-MEL-2 melanoma and with SK-MEL-28 melanoma was > 100 µM throughout. Besides, the TGI with ACHN renal, in the experiment on CCRF-CEM leukemia and in the experiment on DU-145 prostate was > 100 µM in each case.
As to `CN([N-]C(=O)CC(=O)[N-]N(C)C(=S)c1ccccc1)C(=S)c1ccccc1.[Cu+2]`, the GI50 is < 0.01 µM with K-562 leukemia; 0.0377 µM in the experiment with M14 melanoma; < 0.01 µM with HCT-116 colon; 0.0353 µM with KM12 colon; 0.113 µM in the experiment with SK-MEL-2 melanoma; 0.035 µM in the experiment with SK-MEL-28 melanoma. Further, the GI50 was 0.0825 µM in the experiment with ACHN renal, < 0.01 µM with CCRF-CEM leukemia and 0.033 µM in the experiment with DU-145 prostate. The TGI was found to be 0.172 µM with M14 melanoma; 0.014 µM in the experiment on HCT-116 colon; 0.152 µM in the experiment with KM12 colon; 0.263 µM in the experiment on SK-MEL-2 melanoma; 0.127 µM with SK-MEL-28 melanoma; 0.22 µM with ACHN renal. Also, the TGI amounted to 0.121 µM with CCRF-CEM leukemia and 0.133 µM in the experiment with DU-145 prostate.
As for `Cc1cc2cc(Oc3ccnc(Nc4cccc(CS(=O)(=O)NCCN(C)C)c4)n3)ccc2[nH]1`, the GI50 in the experiment on HCT-116 colon was 3.33 µM; in the experiment on KM12 colon it was 1.29 µM; in the experiment with SK-MEL-2 melanoma, 11.5 µM; in the experiment with SK-MEL-28 melanoma, 12.1 µM; in the experiment on EKVX NSCLC, 12.2 µM; in the experiment on ACHN renal it was 7.22 µM. In addition, the GI50 in the experiment on CCRF-CEM leukemia is 3.36 µM; in the experiment with DU-145 prostate it was 9.86 µM. Also, the TGI with HCT-116 colon is 14 µM; in the experiment on KM12 colon it was 13.3 µM; in the experiment with SK-MEL-2 melanoma it was 25.7 µM; with SK-MEL-28 melanoma, 25.1 µM; in the experiment with EKVX NSCLC, 26.7 µM; in the experiment on ACHN renal, 20.3 µM. Also, the TGI was 11.3 µM with CCRF-CEM leukemia and 21.6 µM with DU-145 prostate.
For the molecule `CN1CCN(c2ccc3nc(-c4ccc5nc(-c6ccc(C(F)(F)F)cc6)[nH]c5c4)[nH]c3c2)CC1`, the GI50 in the experiment with M14 melanoma is 1.36 µM; with HCT-116 colon, 1.28 µM; in the experiment on KM12 colon it was 1.74 µM; with SK-MEL-2 melanoma, 1.87 µM; with SK-MEL-28 melanoma, 1.77 µM; in the experiment with EKVX NSCLC it was 2.06 µM. Moreover, the GI50 in the experiment on ACHN renal is 3.94 µM; in the experiment on CCRF-CEM leukemia, 1.56 µM; with DU-145 prostate it was 1.76 µM. In addition, the TGI with M14 melanoma is 2.89 µM; with HCT-116 colon, 2.6 µM; in the experiment with KM12 colon it was 3.27 µM; in the experiment on SK-MEL-2 melanoma it was 3.5 µM; with SK-MEL-28 melanoma, 3.34 µM; with EKVX NSCLC, 4.38 µM. Besides, the TGI in the experiment on ACHN renal stood at 17.7 µM; with CCRF-CEM leukemia it was 3.68 µM; in the experiment with DU-145 prostate, 3.25 µM.
For `N#C/C(=C/c1cccs1)c1cccs1`, the GI50 with K-562 leukemia, in the experiment with HCT-116 colon, in the experiment with KM12 colon, in the experiment with SK-MEL-2 melanoma, in the experiment with SK-MEL-28 melanoma and with EKVX NSCLC was > 100 µM throughout. Also, the GI50 in the experiment with ACHN renal, with CCRF-CEM leukemia and with DU-145 prostate was > 100 µM throughout. The TGI in the experiment with K-562 leukemia, in the experiment with HCT-116 colon, in the experiment on KM12 colon, with SK-MEL-2 melanoma, in the experiment with SK-MEL-28 melanoma and in the experiment on EKVX NSCLC was > 100 µM each time. For the same molecule, the TGI with ACHN renal, in the experiment with CCRF-CEM leukemia and in the experiment on DU-145 prostate was > 100 µM throughout.
In the case of `COc1cccc(NC(=O)c2ccc(C(F)(F)F)nc2Nc2ccc(Cl)cc2C)c1`, the GI50 in the experiment with K-562 leukemia is 13.9 µM; in the experiment on M14 melanoma it was 16.9 µM; in the experiment with HCT-116 colon, 10.9 µM; with SK-MEL-2 melanoma, 10.3 µM; in the experiment on SK-MEL-28 melanoma it was 15 µM; in the experiment with EKVX NSCLC, 10.2 µM. Besides, the values for the GI50 with CCRF-CEM leukemia and with DU-145 prostate were 11.1 µM and 15 µM, respectively. Besides, the TGI came to 38.8 µM in the experiment on K-562 leukemia; 32.5 µM with M14 melanoma; 22.9 µM in the experiment on HCT-116 colon; 21.9 µM in the experiment on SK-MEL-2 melanoma; 28.8 µM in the experiment on SK-MEL-28 melanoma; 24.2 µM with EKVX NSCLC. Further, the TGI in the experiment on CCRF-CEM leukemia was determined as 34.4 µM; in the experiment with DU-145 prostate, 28.3 µM.
On to `CC(=O)OC1CC(C)c2c1ncnc2N1CCN(C(=O)OC(C)(C)C)CC1` (stereo unspecified), for which the GI50 is 37.8 µM in the experiment with K-562 leukemia; 30.4 µM with M14 melanoma; 38.1 µM in the experiment with HCT-116 colon; 38.1 µM in the experiment with KM12 colon; 35.5 µM with SK-MEL-2 melanoma; 72.9 µM with SK-MEL-28 melanoma. For the same molecule, the results for the GI50 with ACHN renal, with CCRF-CEM leukemia and in the experiment on DU-145 prostate were 80.7 µM, 32.9 µM and 31.9 µM, respectively. The TGI in the experiment on K-562 leukemia was > 100 µM; in the experiment with M14 melanoma, > 100 µM; in the experiment with HCT-116 colon, > 100 µM; in the experiment on KM12 colon, > 100 µM; in the experiment on SK-MEL-2 melanoma, 93.1 µM; in the experiment with SK-MEL-28 melanoma, > 100 µM. The TGI with ACHN renal was > 100 µM; in the experiment on CCRF-CEM leukemia, > 100 µM; in the experiment on DU-145 prostate it was 86.9 µM.
For the molecule `COc1cccc2c1C(=O)c1c(O)c3c(c(O)c1C2=O)C[C@@](O)(C(=O)COC(=O)c1cccnc1)C[C@@H]3OC1CC(N)C(O)C(C)O1` (stereo partly specified), the GI50 is 0.15 µM in the experiment with K-562 leukemia; 0.17 µM with M14 melanoma; 0.0475 µM in the experiment with HCT-116 colon; 0.284 µM with KM12 colon; 0.232 µM in the experiment on SK-MEL-2 melanoma; 0.203 µM with SK-MEL-28 melanoma. The GI50 in the experiment with ACHN renal is 0.117 µM; with CCRF-CEM leukemia, 0.0574 µM; in the experiment on DU-145 prostate, 0.223 µM. In addition, the TGI in the experiment on K-562 leukemia was determined as 2.75 µM; with M14 melanoma it was 1.06 µM; with HCT-116 colon, 0.492 µM; in the experiment with KM12 colon it was 8.44 µM; with SK-MEL-2 melanoma, 0.529 µM; in the experiment with SK-MEL-28 melanoma it was 0.689 µM. The TGI worked out at 1.19 µM in the experiment with CCRF-CEM leukemia and 14.1 µM in the experiment with DU-145 prostate.
